# Reference: patent US20100137313A1 (ASTRAZENECA AB, priority 2008, published 2010)
# Target: S. pneumoniae Topoisomerase IV ATPase (ParE) (Streptococcus pneumoniae serotype 4, UniProt Q59961)
# Assay: S. pneumoniae Topoisomerase IV ATPase inhibition
# Assay type: biochemical
# Settings: values marked * are an average of two or more data points, read-out: % Inh (13 μM) of S. pneumoniae Topoisomerase IV ATPase
# Method in brief: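 S. pneumoniae ParE (1.25 nM) ATPase with 160 μM ATP and 5 μg/ml sheared DNA in pH 8.0 Tris, Mg2+, DTT, Brij-35; phosphate detected by malachite green/molybdate at 650 nm. Normalised to 2% DMSO (0%) and 20 μM EDTA (100%); IC50 from 10 concentrations.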
# Chain of S. pneumoniae Topoisomerase IV ATPase (ParE) (Q59961 whole entry): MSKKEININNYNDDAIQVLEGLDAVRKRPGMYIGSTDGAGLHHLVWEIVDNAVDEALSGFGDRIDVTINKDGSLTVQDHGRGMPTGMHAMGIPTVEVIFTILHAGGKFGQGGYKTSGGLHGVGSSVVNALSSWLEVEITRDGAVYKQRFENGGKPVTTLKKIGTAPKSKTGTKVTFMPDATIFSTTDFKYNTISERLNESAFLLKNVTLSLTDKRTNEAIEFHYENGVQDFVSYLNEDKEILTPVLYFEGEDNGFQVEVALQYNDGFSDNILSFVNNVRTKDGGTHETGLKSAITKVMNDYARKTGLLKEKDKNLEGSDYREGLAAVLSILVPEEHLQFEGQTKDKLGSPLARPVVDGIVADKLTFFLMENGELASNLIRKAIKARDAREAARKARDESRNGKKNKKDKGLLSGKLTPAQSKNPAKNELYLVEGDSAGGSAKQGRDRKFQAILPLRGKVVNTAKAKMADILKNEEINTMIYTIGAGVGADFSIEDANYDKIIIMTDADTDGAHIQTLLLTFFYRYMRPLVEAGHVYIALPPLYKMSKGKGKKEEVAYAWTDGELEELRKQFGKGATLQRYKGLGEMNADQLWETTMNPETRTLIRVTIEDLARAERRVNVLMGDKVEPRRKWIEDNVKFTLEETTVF
row,SMILES,inhibition at 13 µM
1,"COc1cc(Nc2ncc(-c3cc(C(=O)NS(C)(=O)=O)c(=O)n(C)c3)c(-n3ccc(C(F)(F)F)n3)n2)cc(OC)c1 [Example 1019, 5-(2-(3,5-Dimethoxyphenylamino)-4-(3-(trifluoromethyl)-1H-pyrazol-1-yl)pyrimidin-5-yl)-1-methyl-N-(methylsulfonyl)-2-oxo-1,2-dihydropyridine-3-carboxamide]",100%
2,"COc1ncc(-c2cnc(Nc3ccc(F)c(Cl)c3)nc2-n2ccc(C(F)(F)F)n2)cc1C(=O)NS(C)(=O)=O [Example 1024, 5-(2-(3-Chloro-4-fluorophenylamino)-4-(3-(trifluoromethyl)-1H-pyrazol-1-yl)pyrimidin-5-yl)-2-methoxy-N-(methylsulfonyl)nicotinamide]",100%
3,"COc1ncc(-c2cnc(Nc3ccc(F)c(Cl)c3)nc2-n2nc(C(F)(F)F)cc2C)cc1C(=O)NS(C)(=O)=O [Example 1025, 5-(2-(3-Chloro-4-fluorophenylamino)-4-(5-methyl-3-(trifluoromethyl)-1H-pyrazol-1-yl)pyrimidin-5-yl)-2-methoxy-N-(methylsulfonyl)nicotinamide]",98%
4,COc1cc(Nc2ncc(-c3cc(C(=O)NS(C)(=O)=O)c(=O)n(C)c3)c(-n3nc(C(F)(F)F)cc3C)n2)cc(OC)c1 [Example 1026],98%
5,"COc1ncc(-c2cnc(Nc3ccc(F)c(Cl)c3)nc2-n2ccc(C(F)(F)F)n2)cc1CO [Example 1027, (5-(2-(3-chloro-4-fluorophenylamino)-4-(3-(trifluoromethyl)-1H-pyrazol-1-yl)pryimidin-5-yl)-2-methoxypyridin-3yl)methanol]",94%
6,"COc1ncc(-c2cnc(Nc3ccc(F)c(Cl)c3)nc2-n2ccc(C(F)(F)F)n2)cc1/C=C/C(=O)O [Example 1030, (E)-3-(5-(2-(3-chloro-4-fluorophenylamino)-4-(3-(trifluoromethyl)-1H-pyrazol-1-yl)pyrimidin-5-yl)-2-methoxypyridin-3-yl)acrylic acid]",100%
7,"CCN(CC)S(=O)(=O)c1cncc(-c2cnc(Nc3ccc(F)c(Cl)c3)nc2-n2ccc(C(F)(F)F)n2)c1 [Example 1033, 5-(2-(3-Chloro-4-fluorophenylamino)-4-(3-(trifluoromethyl)-1H-pyrazol-1-yl)pyrimidin-5-yl)-N,N-diethylpyridine-3-sulfonamide]",20%
8,CCN(CC)S(=O)(=O)c1cncc(-c2cnc(Nc3ccc(F)c(Cl)c3)nc2-n2nc(C(F)(F)F)cc2C)c1 [Example 1034],96%
9,O=S(=O)(c1cncc(-c2cnc(Nc3ccc(F)c(Cl)c3)nc2-n2ccc(C(F)(F)F)n2)c1)N1CCOCC1 [Example 1035],51%
10,Cc1cc(C(F)(F)F)nn1-c1nc(Nc2ccc(F)c(Cl)c2)ncc1-c1cncc(S(=O)(=O)N2CCOCC2)c1 [Example 1036],100%
11,"COC(=O)CC(=O)c1cncc(-c2cnc(Nc3ccc(F)c(Cl)c3)nc2N2CCOCC2)c1 [Example 1039, Methyl 3-(5-(2-(3-chloro-4-fluorophenylamino)-4-morpholinopyrimidin-5-yl)pyridin-3-yl)-3-oxopropanoate]",90%
12,"COCCCNc1nc(Nc2ccc(F)c(Cl)c2)ncc1-c1cncc(C(=O)CC(=O)OC)c1 [Example 1040, Methyl 3-(5-(2-(3-chloro-4-fluorophenylamino)-4-(3-methoxypropylamino)pyrimidin-5-yl)pyridin-3-yl)-3-oxopropanoate]",86%
13,"COC(=O)CC(=O)c1cncc(-c2cnc(Nc3ccc(F)c(Cl)c3)nc2-n2nc(C(F)(F)F)cc2C)c1 [Example 1041, Methyl 3-(5-(2-(3-chloro-4-fluorophenylamino)-4-(5-methyl-3-(trifluoromethyl)-1H-pyrazol-1-yl)pyrimidin-5-yl)pyridin-3-yl)-3-oxopropanoate]",100%
14,"Cc1cc(C(F)(F)F)nn1-c1nc(Nc2ccc(F)c(Cl)c2)ncc1-c1ccc2c(c1)C(=O)NC2=O [Example 1042, 5-(2-(3-Chloro-4-fluorophenylamino)-4-(5-methyl-3-(trifluoromethyl)-1H-pyrazol-1-yl)pyrimidin-5-yl)isoindoline-1,3-dione]",49%
15,"Cn1cc(-c2cnc(Nc3ccc(F)c(Cl)c3)nc2-n2ccc(C(F)(F)F)n2)cc(C(=O)NS(C)(=O)=O)c1=O [Example 1048, 5-(2-(3-Chloro-4-fluorophenylamino)-4-(3-(trifluoromethyl)-1H-pyrazol-1-yl)pyrimidin-5-yl)-1-methyl-N-(methylsulfonyl)-2-oxo-1,2-dihydropyridine-3-carboxamide]",100%
16,"Cc1cc(C(F)(F)F)nn1-c1nc(Nc2ccc(F)c(Cl)c2)ncc1-c1cc(C(=O)NS(C)(=O)=O)c(=O)n(C)c1 [Example 1049, 5-(2-(3-Chloro-4-fluorophenylamino)-4-(5-methyl-3-(trifluoromethyl)-1H-pyrazol-1-yl)pyrimidin-5-yl)-1-methyl-N-(methylsulfonyl)-2-oxo-1,2-dihydropyridine-3-carboxamide]",99%

row,SMILES,inhibition at 13 µM
1,"COCCCNc1nc(Nc2ccc(F)c(Cl)c2)ncc1-c1ccc2cc(C(=O)OC)[nH]c2c1 [Example 1051, methyl 6-(2-(3-chloro-4-fluorophenylamino)-4-(3-methoxypropylamino)pyrimidin-5-yl)-1H-indole-2-carboxylate]",0%
2,"CCOC(=O)c1cc2cc(-c3cnc(Nc4ccc(F)c(Cl)c4)nc3NCCCOC)ccc2[nH]1 [Example 1052, Ethyl 5-(2-(3-chloro-4-fluorophenylamino)-4-(3-methoxyproylamino)pyrimidin-5-yl)-1H-indole-2-carboxylate]",0%
3,"COC(=O)c1cc2ccc(-c3cnc(Nc4ccc(F)c(Cl)c4)nc3N3CCOCC3)cc2[nH]1 [Example 1053, Methyl 6-(2-(3-chloro-4-fluorophenylamino)-4-morpholinopyrimidin-5-yl)-1H-indole-2-carboxylate]",0%
4,"CCOC(=O)c1cc2cc(-c3cnc(Nc4ccc(F)c(Cl)c4)nc3N3CCOCC3)ccc2[nH]1 [Example 1054, Ethyl 5-(2-(3-chloro-4-fluorophenylamino)-4-morpholinopyrimidin-5-yl)-1H-indole-2-carboxylate]",0%
5,"CCC1COC(C)CN1c1nc(Nc2ccc(F)c(Cl)c2)ncc1-c1cccc(/C=C/C(=O)O)c1 (centres unmarked) [Example 1056, (E)-3-(3-(2-(3-chloro-4-fluorophenylamino)-4-(5-ethyl-2-methylmorpholino)pyrimidin-5-yl)phenyl)acrylic acid]",85%
6,"COCCn1cc(C(=O)O)c(=O)c2cc(-c3cnc(Nc4ccc(F)c(Cl)c4)nc3NCCCN(C)C)ccc21 [Example 1057, 6-(2-(3-Chloro-4-fluorophenylamino)-4-(3-(dimethylamino)propylamino)pyrimidin-5-yl)-1-(2-methoxyethyl)-4-oxo-1,4-dihydroquinoline-3-carboxylic acid]",83%
7,"CCC1COC(C)CN1c1nc(Nc2ccc(F)c(Cl)c2)ncc1-c1cncc(C(=O)O)c1 (centres unmarked) [Example 1058, 5-(2-(3-Chloro-4-fluorophenylamino)-4-(5-ethyl-2-methylmorpholino)pyrimidin-5-yl)nicotinic acid]",87%
8,O=C(O)/C=C/c1cccc(-c2cnc(Nc3ccc(F)c(Cl)c3)nc2N2CCOC(CO)C2)c1 (centres unmarked) [Example 1059],85%
9,O=C(O)c1cncc(-c2cnc(Nc3ccc(F)c(Cl)c3)nc2N2CCOC(CO)C2)c1 (centres unmarked) [Example 1060],87%
10,"COCCCNc1nc(Nc2ccc(F)c(Cl)c2)ncc1-c1ccc2cc(C(=O)O)[nH]c2c1 [Example 1061, 6-(2-(3-chloro-4-fluorophenylamino)-4-(3-methoxypropylamino)pyrimidin-5-yl)-1H-indole-2-carboxylic acid]",92%
11,"COCCCNc1nc(Nc2ccc(F)c(Cl)c2)ncc1-c1ccc2[nH]c(C(=O)O)cc2c1 [Example 1062, 5-(2-(3-chloro-4-fluorophenylamino)-4-(3-methoxypropylamino)pyrimidin-5-yl)-1H-indole-2-carboxylic acid]",91%
12,"O=C(O)c1cc2ccc(-c3cnc(Nc4ccc(F)c(Cl)c4)nc3N3CCOCC3)cc2[nH]1 [Example 1063, 6-(2-(3-Chloro-4-fluorophenylamino)-4-morpholinopyrimidin-5-yl)-1H-indole-2-carboxylic acid]",94%
13,"O=C(O)c1cc2cc(-c3cnc(Nc4ccc(F)c(Cl)c4)nc3N3CCOCC3)ccc2[nH]1 [Example 1064, 5-(2-(3-Chloro-4-fluorophenylamino)-4-morpholinopyrimidin-5-yl)-1H-indole-2-carboxylic acid]",100%
14,"COc1ncc(-c2cnc(Nc3ccc(F)c(Cl)c3)nc2-n2ccc(C(F)(F)F)n2)cc1C(=O)O [Example 1066, 5-(2-(3-chloro-4-fluorophenylamino)-4-(3-(trifluoromethyl)-1H-pyrazol-1-yl)pyrimidin-5-yl)-2-methoxynicotinic acid]",100%
15,"COc1ncc(-c2cnc(Nc3ccc(F)c(Cl)c3)nc2-n2nc(C(F)(F)F)cc2C)cc1C(=O)O [Example 1067, 5-(2-(3-chloro-4-fluorophenylamino)-4-(5-methyl-3-(trifluoromethyl)-1H-pyrazol-1-yl)pyrimidin-5-yl)-2-methoxynicotinic acid]",98%
16,"O=C(O)c1cc(-c2cnc(Nc3ccc(F)c(Cl)c3)nc2-n2ccc(C(F)(F)F)n2)ccn1 [Example 1068, 4-(2-(3-Chloro-4-fluorophenylamino)-4-(3-(trifluoromethyl)-1H-pyrazol-1-yl)pyrimidin-5-yl)picolinic acid]",100%
